Measurements reported in patent US20150320836A1, “CRYOPRESERVATION OF CELLS INSIDE A MACRO-ENCAPSULATION DEVICE” (The Regents of the University of California, priority 2012, published 2015).
Where two headings read alike, the source gives them in different places.

Key:
[1] = system: human Ins-G cells; type: cell-based
Description: The sensitivity of dissociated human Ins-G cells to DMSO without cryopreservation (CP) was investigated. […] Temperatures ranging from 0° C. to 37° C. were investigated. Regardless, cell viability was practically indistinguishable from control cells not exposed to DMSO (FIG. 1A, column #1).
In prior studies with a macro-encapsulation device, we loaded cells into devices immediately prior to transplantation. Thus, until now we have not exposed encapsulated cells to CPA, yet the ability to freeze preloaded devices would ensure reproducibility between experiments and among users. The process of loading cells into the device requires approximately 20 min; beginning when cells are drawn up into a Hamilton syringe and slowly dispensed into the device, and ending when the syringe has been removed from the device port and the port has been sealed. We hypothesized therefore, that cells must withstand pre-freeze exposure to CPA for 20 minutes in order to be successfully cryopreserved in devices. […]
(§1) Cells cultured as monolayers were dissociated with Accutase, pelleted, and resuspended with either normal culture media (CM) as a positive control for cell viability or with the Freeze Medium (FM) containing 10% DMSO. […] Following incubation time, cells were allowed to reattach to tissue culture plates for 24 hours and then assessed for attachment and viability. […]

[2] = system: human Ins-G cells; experiment: Freezing dissociated Ins-G cells after pre-freeze incubation with DMSO; type: cell-based
Description: The effects of preincubation with DMSO on freeze/thaw viability were investigated. Freezing dissociated cells pre-exposed to Freeze Media containing 10% DMSO (FIG. 1B) also had no effect on cryosurvival, which per se was exceptionally good (up to 77-79% to control). In order to verify requirement for cryoprotective agents (CPA) in freezing, a sample was frozen in culture media (no DMSO). As expected, survival was very poor (11% in comparison to the positive control). […] Without being bound to theory, a possible explanation is that cell mortality resulted from slow (suboptimal) freezing injury, when cells are frozen at the rate substantially slower than the equilibrium “Mazur's rate” when the cells are just in equilibrium with freezing outer milieu. The suboptimal rates in the inverted U curve usually contributed to the effects of highly concentrated solutes rather than immediate cell destruction and fast necrosis associated with the supra-optimal (fast freezing, according to the 2-factor hypothesis developed by Mazur (Mazur et al. (1972) Experimental Cell Res., 71:345-349; Mazur et al. (2008) Biol Reprod, 78:2-12). The cell membrane rupture and other colligative osmotic damage due to excessive shrinkage and swelling usually manifest quickly as the loss of selective permeability properties so the cells become permeable to large particle dyes such Trypan Blue, soon after the treatment. The osmotic damage usually decreases with the temperature and step-wise addition and dilution (which, in fact, exposes the cells to CPA longer than an abrupt one-step addition or dilution). In contrast, a long exposure to a CPA or/and to very concentrated solutions of the cryoprotectant can manifest later in the form of, e.g., death due to specific chemical toxicity, particularly on membrane and epigenetic level as it may affect protein folding and membrane lipid bilayers, as it is shown for some types of cells (see, for example (Katkov II et al. (2006) Cryobiology, 53:194-205) for references. In contrast to osmotic damage, chemical toxicity usually exacerbates at longer exposure at higher temperature, and the prevalence of one mode vs. another can be easily differentiate by treating cells with higher temperatures and/or for longer exposure to the CPA (Katkov II (2011) Cryobiology, 62:242-4; Katkov II et al. (1998) Cryobiology, 37:325-38; Katkov II et al. (2007) Cryo Letters, 28:409-27).
as §1

[3] = system: islet like cell clusters (ICCs) of human Ins-G cells; experiment: Freezing ICCs: pre-freeze DMSO exposure and centrifugation; type: cell-based
Description: To more closely mimic the morphological structure of pancreatic islets, cells cultured as 3-dimensional ICCs were investigated. The first technical question was how to harvest clusters, whether by gentle (200 g×5 min) centrifugation or by settling by gravitational force (1 g). Here prefreeze exposure of the clusters to 10% DMSO at room temperature and +37° C. before freezing was investigated.
Two negative controls were employed. First (sample 1 on FIG. 2) were non-frozen clusters but the cells were exposed to 10% of DMSO for 20 min at +37° C. and centrifuged (200 g×5 min) The second control (Column #2) were cells that were not exposed top DMSO and frozen w/o it, with the same other procedures that in the first control. […] Apparently, some clusters were lost because they had not settled to the bottom of the tube either due to sub-optimal time or length of column 15-mL tube (Katkov II et al. (1999) Cell Biochem Biophys, 31:231-45). Cell clusters, it was observed, are more sensitive than dissociated cells from monolayer cultures even before and freezing (viability after thawing for the re-attached cells was in range of 61-72%, which was substantially lower than in monolayers (Experiment 2, FIG. 2). Thus, natural sedimentation was used with an increased time and decreased column length by using 50-mL conical tubes instead for the next experiments. […]

[4] = system: islet like cell clusters (ICCs) of human Ins-G cells; type: cell-based; conditions: for viable yield: human
Description: While the level of DMSO will gradually decrease during elution, the extreme point was tested and the same high level of DMSO was maintained for the longevity of the entire exposure.
Increase of temperature of elution will shorten the time of elution but DMSO might cause increased toxicity at increased temperature. Driven by this dilemma, extreme treatments of post-thawed clusters were checked starting with immediate washing of DMSO, maintaining them for 20 min on 4° C. before washing, at 25° C. for 10 and 20 min and at +37° C. at 10 and 20 min (Experiment 3, FIG. 3A). […] There was one exception however, the cells incubated at room temperature for 20 minutes performed slightly poorer than the other treatments. […] This phenomenon was observed over a large number of experiments (N=6), but its basis is unclear. […] Further experiments would be needed to determine with certainty that RT is actually more detrimental than +37° C. or ice. The surviving cells retain insulin expressing capacity for all treatments (FIG. 3B).
Ultimately, the ability to freeze cell clusters inside an encapsulation device may require that the cells survive the time required to remove CPA upon thawing. Normally, when (unencapsulated) cells are thawed, CPA is removed quickly, either by centrifugation or by extensive dilution into culture media. However, for a cell-filled device, CPA removal will be accomplished via diffusion of CPA out of device into a large volume of wash media, until equilibration is reached. We estimated that approximately 20 minutes will be required to reach equilibrium, during which time cells are exposed to CPA. We therefore first examined the effects of post-thaw exposure to CPA in unencapsulated ICCs. Because equilibrium is also temperature dependent, we exposed thawed ICCs to CPA at 25° C. or 37° C. As we can see from FIG. 3A, sample 1, a control which was not exposed to CPA or frozen, reattachment of ICCs to tissue culture plates is 48%, lower than reattachment of dissociated cells (FIG. 1, sample 1). […]

[5] = system: insulin-GFP transgene in human Ins-G ICCs; experiment: Insulin-GFP expression after freezing ICCs and post-thaw DMSO exposure; type: cell-based; conditions: frozen, post-thaw DMSO 20 minutes at 37° C.
Text: In addition to survival, it is important that ICCs retain insulin gene expression during these manipulations. Human Ins-G cells express endogenous insulin message in response to tamoxifen (which activates the transcription factor […] by promoting translocation from the cytoplasm to the nucleus). The cells were also engineered to express GFP from an insulin transgene. Therefore, GFP expression in response to tamoxifen is a surrogate for insulin expression. We examined GFP expression in control ICCs (not frozen, not exposed to DMSO) as well as in cells frozen and exposed to DMSO for 20 minutes at 37° C. (FIG. 3B).

[6] = system: islet like cell clusters (ICCs) of human Ins-G cells; experiment: ICCs loaded or frozen in TheraCyte encapsulation device; type: cell-based; conditions: frozen in TheraCyte device in 10% DMSO freezing medium
Description: Observing that the clusters can be exposed to DMSO both before freezing and after thawing when the cells were frozen in cryovials, cells were then frozen in the TheraCyte™ device (FIGS. 4A-C). Cells were exposed to DMSO during loading into the device. The port was then trimmed so that the device could fit a 1.5 mL cryovial which also contained 10-% DMSO freezing medium and froze them. After the vial was thawed, DMSO was eluted by placing the device in gently swirling medium solution (using magnetic stir bar). Without being limited by theory, this treatment may be sufficient to wash out the majority of DMSO before transplantation. Moreover this procedure mimics slow elution if the device is transplanted immediately after thawing, as a low concentration of DMSO is presumed to be non-toxic even for small animals. […] Barely 1/10 of loaded cells survived the whole procedure (including cutting device in pieces and placing into the dish, washing that out in 48 hrs, etc. (Experiment 4, FIG. 5). There can be several explanations for the cell loss, such as following.
We next addressed the effects of freezing ICCs inside the encapsulation device. As a control for freezing, ICCs resuspended in FM were loaded into devices which were sealed and then immediately opened and cells removed. Cell attachment following release from device averaged 64% and of the attached cells, 59% were viable. […]

[7] = system: hESCs; experiment: Exposure of dissociated hESCs to cryoprotective agent; type: cell-based, human; conditions: 10% DMSO 10 or 30 min, 4° C. or 37° C., no freezing
Description: hESCs are cultured as monolayers and are dissociated with Accutase, pelleted, and resuspended with either normal culture media (CM) as a positive control for cell viability or with the Freeze Medium (FM) containing 10% DMSO. Cells are either plated immediately in CM or incubated in FM for up to 30 minutes. Following incubation time, cells are allowed to reattach to tissue culture plates for 24 hours and then assessed for attachment and viability. DMSO concentration, freezing time, and freezing temperature, for example, may be varied to obtain best results for a given culture. […] As a result, the Viable Yield (the product of Attachment and Viability) is also similar among the 4 incubation conditions. Thus, exposure to DMSO without freezing produces a minimal effect on survival of dissociated cells monolayer cultures.

[8] = pre-freeze 10% DMSO 10 or 30 min, +4° C. or +37° C.

Structure (SMILES): C[S+](C)[O-] [DMSO, dimethyl sulfoxide]
- tolerance of exposure to 10% DMSO [1]: well tolerated
- Viable Yield (product of Attachment and Viability) ([1]; human, 10 %): 63-73%
- cryosurvival relative to control ([2]; frozen in Freeze Media with 10% DMSO after pre-exposure): 77-79%
- Attachment efficiency after freezing [2, 8]: 73-77%
- Viable Yield after freezing [2, 8]: 63-73%
- viability of re-attached cells after freezing [2, 8]: 86-92%
- viability after thawing of re-attached cells ([3]; ICCs frozen after pre-freeze 10% DMSO exposure): 61-72%
- viable yield ([3]; clusters exposed to 10% DMSO at +37° C. for 20 min, centrifuged 200 g×5 min): 31%
- tolerance of post-thaw exposure to DMSO [4]: well tolerated
- viable yield [4]: 35-38%
- viable yield ([4]; 20 min): 21%
- GFP expression versus control ICCs [5]: no significant difference
- fraction of loaded cells surviving the whole procedure [6]: 1/10
- survival [7]: ≥ 80%
